From DBAASP
≈ marks a conversion by molar mass, not a printed value. Where “and” joins values, the source holds several entries; their conditions need not be identical. Identical values can stand only once.

How the values were obtained:
Test in all cases: ≥ marks a high value that may be exact or a test limit, other limits are often not marked, values filed in µg/mL are converted to µM
[1] = test system: Cronobacter sakazakii DPC 6440
[2] = test system: Listeria monocytogenes LO28
[3] = test system: Enterococcus faecium CGMCC 1.2334
[4] = test system: Pseudomonas aeruginosa CGMCC 1.860
Bacillus cereus AS1.126 = test system: Bacillus cereus AS1.126
[5] = test system: Enterococcus faecalis CGMCC 1.595
[6] = test system: Klebsiella aerogenes CGMCC 1.876
[7] = test system: Enterobacter cloacae CGMCC 1.58
[8] = test system: Staphylococcus aureus AS1.72
Escherichia coli AS1.349 = test system: Escherichia coli AS1.349
[9] = test system: Klebsiella pneumoniae subsp. pneumoniae CGMCC 1.176
[10] = test system: Lactococcus lactis AS1.1690
[11] = test system: Streptococcus pneumoniae BCRC 10794
[12] = test system: Staphylococcus aureus BCRC 10780
[13] = test system: Escherichia coli ATCC 25922
[14] = test system: Escherichia coli ATCC 43827
[15] = test system: Escherichia coli ATCC 11775
[16] = test system: Enterococcus faecalis ATCC 29212
[17] = test system: Pseudomonas aeruginosa ATCC 27853
[18] = test system: Salmonella enterica subsp. enterica serovar Typhi DMST 22842
[19] = test system: Staphylococcus aureus ATCC 25923
Vibrio cholerae non-O1 = test system: Vibrio cholerae non-O1
Vibrio cholerae non-O139 = test system: Vibrio cholerae non-O139
[20] = test system: Staphylococcus epidermidis ATCC 12228
[21] = test system: Staphylococcus epidermidis PIA 8400
[22] = test system: Staphylococcus aureus ATCC 29213
[23] = test system: Staphylococcus aureus ATCC 25023

SMILES: CC[C@H](C)[C@H](NC(=O)[C@@H](NC(=O)[C@H](CCCCN)NC(=O)[C@@H](NC(=O)[C@H](CCCCN)NC(=O)[C@@H]1CCCN1C(=O)[C@H](CCC(N)=O)NC(=O)[C@H](C)NC(=O)[C@@H](N)Cc1c[nH]c2ccccc12)[C@@H](C)O)C(C)C)C(=O)N1CCC[C@H]1C(=O)N[C@@H](Cc1ccc(O)cc1)C(=O)N[C@H](C(=O)N[C@@H](CCCN=C(N)N)C(=O)N[C@@H](Cc1ccc(O)cc1)C(=O)N[C@@H](CC(C)C)C(=O)O)C(C)C [WAQPKTKVIPYVRYL]
- MIC [1]: ≥ 39.1 µM
- MIC [2]: ≥ 39.1 µM

SMILES: NC(N)=NCCC[C@H](NC(=O)[C@H](Cc1cnc[nH]1)NC(=O)[C@H](Cc1c[nH]c2ccccc12)NC(=O)[C@H](Cc1ccccc1)NC(=O)[C@H](CCCN=C(N)N)NC(=O)[C@H](CCCN=C(N)N)NC(=O)[C@@H](N)Cc1c[nH]c2ccccc12)C(=O)O [WRRFWHR]
- MIC [3]: 25 µM (≈ 28.6 µg/mL)
- MIC [4]: 25 µM (≈ 28.6 µg/mL)
- MIC (Bacillus cereus AS1.126): 25 µM (≈ 28.6 µg/mL)
- MIC [5]: ≥ 50 µM
- MIC [6]: ≥ 100 µM
- MIC [7]: ≥ 100 µM
- MIC [8]: 25 µM (≈ 28.6 µg/mL)
- MIC (Escherichia coli AS1.349): 25 µM (≈ 28.6 µg/mL)
- MIC [9]: ≥ 100 µM
- MIC [10]: ≥ 50 µM

SMILES: CC[C@H](C)[C@H](NC(=O)[C@H](CCSC)NC(=O)[C@H](CCCCN)NC(=O)CNC(=O)[C@H](C)NC(=O)[C@H](Cc1cnc[nH]1)NC(=O)[C@H](Cc1ccccc1)NC(=O)[C@H](CC(C)C)NC(C)=O)C(=O)N[C@@H](Cc1cnc[nH]1)C(N)=O [LFHAGKMIH]
- MIC [11]: ≥ 94.9 µM
- MIC [12]: ≥ 94.9 µM

SMILES: NC(=O)CC[C@H](NC(=O)[C@H](Cc1c[nH]c2ccccc12)NC(=O)[C@H](CCCN=C(N)N)NC(=O)[C@@H](N)CCCN=C(N)N)C(=O)N[C@@H](Cc1c[nH]c2ccccc12)C(=O)N[C@@H](CCCN=C(N)N)C(=O)O [RRWQWR]
- MIC [13]: 22 µM (≈ 21.7 µg/mL)
- MIC [14]: 5 µM (≈ 4.94 µg/mL)
- MIC [15]: 22 µM (≈ 21.7 µg/mL)
- MIC [16]: 44 µM (≈ 43.4 µg/mL)

SMILES: NC(=O)[C@H](Cc1c[nH]c2ccccc12)NC(=O)[C@H](Cc1c[nH]c2ccccc12)NC(=O)[C@H](CCCN=C(N)N)NC(=O)[C@H](CCCN=C(N)N)NC(=O)[C@H](Cc1c[nH]c2ccccc12)NC(=O)[C@H](Cc1c[nH]c2ccccc12)NC(=O)[C@H](CCCN=C(N)N)NC(=O)[C@H](Cc1c[nH]c2ccccc12)NC(=O)[C@H](Cc1c[nH]c2ccccc12)NC(=O)[C@@H](N)CCCN=C(N)N [RWWRWWRRWW]
- MIC [17]: 26.1 µM (≈ 46 µg/mL)
- MIC [18]: ≥ 51.7 µM
- MIC [19]: > 51.7 µM
- MIC [13]: > 51.7 µM
- MIC (Vibrio cholerae non-O1): 13.1 µM (≈ 23 µg/mL)
- MIC (Vibrio cholerae non-O139): 13.1 µM (≈ 23 µg/mL)
- MIC [20]: > 51.7 µM

SMILES: CC[C@H](C)[C@H](NC(=O)[C@H](CCCCN)NC(=O)[C@@H](NC(=O)[C@H](CCCN=C(N)N)NC(=O)[C@H](CCCN=C(N)N)NC(=O)[C@@H](N)CCCN=C(N)N)[C@@H](C)CC)C(=O)N[C@@H](CCCN=C(N)N)C(=O)N[C@@H](Cc1c[nH]c2ccccc12)C(=O)N[C@@H](Cc1ccc(O)cc1)C(N)=O [RRRIKIRWY]
- MIC [17]: 23 µM and 46.8 µM
- MIC [13]: 23 µM (≈ 31 µg/mL)
- MIC [21]: 23 µM and 11.9 µM
- MIC [22]: 23 µM (≈ 31 µg/mL)
- MIC [16]: 186 µM (≈ 251 µg/mL)

SMILES: CC(C)C[C@H](NC(=O)[C@H](CC(C)C)NC(=O)[C@H](CC(C)C)NC(=O)[C@H](CC(C)C)NC(=O)[C@H](CC(C)C)NC(=O)[C@H](CCCCN)NC(=O)[C@H](CC(C)C)NC(=O)[C@@H](N)CCCN=C(N)N)C(=O)N[C@@H](CCCN=C(N)N)C(=O)N[C@@H](Cc1c[nH]c2ccccc12)C(N)=O [RLKLLLLLRW]
- MIC [23]: 3.02 µM (≈ 4 µg/mL)
